Assays:
Assay in all cases: In Vitro Assay
[1] = target: T1, Receptor-interacting serine/threonine-protein kinase 1 (Homo sapiens, UniProt Q13546)
T1 sequence (Q13546 whole entry): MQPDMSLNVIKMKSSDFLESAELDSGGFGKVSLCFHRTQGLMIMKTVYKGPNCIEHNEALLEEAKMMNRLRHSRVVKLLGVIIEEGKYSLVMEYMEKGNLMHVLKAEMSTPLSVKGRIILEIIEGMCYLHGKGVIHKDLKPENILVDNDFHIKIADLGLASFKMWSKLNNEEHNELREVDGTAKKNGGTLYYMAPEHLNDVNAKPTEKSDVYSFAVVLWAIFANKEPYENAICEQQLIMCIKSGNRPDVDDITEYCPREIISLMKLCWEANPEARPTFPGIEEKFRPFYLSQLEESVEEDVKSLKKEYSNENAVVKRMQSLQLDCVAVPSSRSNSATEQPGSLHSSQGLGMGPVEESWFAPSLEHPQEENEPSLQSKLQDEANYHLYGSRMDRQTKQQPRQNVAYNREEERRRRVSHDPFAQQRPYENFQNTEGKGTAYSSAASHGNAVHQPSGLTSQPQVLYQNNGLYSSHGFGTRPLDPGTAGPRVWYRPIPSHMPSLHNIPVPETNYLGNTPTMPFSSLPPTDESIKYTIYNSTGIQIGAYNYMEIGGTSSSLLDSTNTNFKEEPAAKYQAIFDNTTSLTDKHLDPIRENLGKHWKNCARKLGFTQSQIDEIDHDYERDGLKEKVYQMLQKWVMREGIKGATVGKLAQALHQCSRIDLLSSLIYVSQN
Procedure: (§1) Binding affinity of the test compounds for human MLKL (full length), mouse MLKL (full length), human RIPK1 and human RIPK3 was determined using the KINOMEscan™ technology developed by DiscoverX (USA; http://www.discoverx.com). The assay was conducted according to manufacturer instructions.

[2] = target: Receptor-interacting serine/threonine-protein kinase 3 (Homo sapiens, UniProt Q9Y572)
Procedure: as §1

[3] = target: T2, Mixed lineage kinase domain-like protein (Homo sapiens, UniProt Q8NB16)
T2 sequence (Q8NB16 whole entry): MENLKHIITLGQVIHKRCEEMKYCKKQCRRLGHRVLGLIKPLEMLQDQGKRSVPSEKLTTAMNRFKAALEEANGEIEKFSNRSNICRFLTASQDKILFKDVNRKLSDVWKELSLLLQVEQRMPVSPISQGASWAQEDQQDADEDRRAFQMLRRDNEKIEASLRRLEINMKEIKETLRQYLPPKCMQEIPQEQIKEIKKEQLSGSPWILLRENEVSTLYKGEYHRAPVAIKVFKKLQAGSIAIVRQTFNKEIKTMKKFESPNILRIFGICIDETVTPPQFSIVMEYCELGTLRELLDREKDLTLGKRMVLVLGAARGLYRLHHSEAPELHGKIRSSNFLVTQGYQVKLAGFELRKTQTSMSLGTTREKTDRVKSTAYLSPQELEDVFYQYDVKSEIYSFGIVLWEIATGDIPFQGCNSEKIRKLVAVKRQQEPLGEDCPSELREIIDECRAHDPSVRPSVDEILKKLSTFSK
Procedure: as §1

Chain of Receptor-interacting serine/threonine-protein kinase 3 (Q9Y572 whole entry): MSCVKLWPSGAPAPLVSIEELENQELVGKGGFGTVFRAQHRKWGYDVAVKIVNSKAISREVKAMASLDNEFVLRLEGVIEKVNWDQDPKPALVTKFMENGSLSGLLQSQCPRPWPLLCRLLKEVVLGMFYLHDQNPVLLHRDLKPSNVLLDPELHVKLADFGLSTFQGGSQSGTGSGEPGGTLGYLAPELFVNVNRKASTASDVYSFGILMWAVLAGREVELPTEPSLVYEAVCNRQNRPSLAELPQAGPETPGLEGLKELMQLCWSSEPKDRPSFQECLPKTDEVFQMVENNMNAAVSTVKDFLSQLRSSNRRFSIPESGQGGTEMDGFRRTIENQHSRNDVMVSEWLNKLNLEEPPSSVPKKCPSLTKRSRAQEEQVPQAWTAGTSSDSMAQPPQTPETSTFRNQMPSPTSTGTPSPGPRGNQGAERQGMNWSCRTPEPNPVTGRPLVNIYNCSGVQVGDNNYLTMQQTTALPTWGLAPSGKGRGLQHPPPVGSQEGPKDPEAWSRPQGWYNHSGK

## Nc1ncc(-c2cnn(C3CCOCC3)c2)c2occ(-c3ccc(NS(=O)(=O)C(F)F)c(OCc4ccc(F)cc4)c3)c12 [US20250115598, Compound 5]
[1]
  Kd: > 2.5 µM
[2]
  Kd: > 2.5 µM

## Cn1nc(-c2ccc(NS(=O)(=O)C(F)F)c(OCc3ccc(F)cc3)c2)c2c(N)ncc(-c3ccncc3)c21 [US20250115598, Compound 14]
[1]
  Kd: > 2.5 µM
[2]
  Kd: > 2.5 µM

## C[C@H](Oc1cc(-c2nn(C)c3c(-c4cnn(C5CCN(C)C(C(F)F)C5)c4)cnc(N)c23)ccc1NS(=O)(=O)C(F)F)c1ccc(F)cc1 (stereo partly drawn) [US20250115598, Compound 158]
[1]
  Kd: > 2.5 µM
[2]
  Kd: > 2.5 µM

## C[C@H](Oc1cc(-c2nn(C)c3c(-c4cnn(C5CCOCC5)c4)cnc(N)c23)ccc1NS(=O)(=O)C(F)F)c1ccc(F)cc1 [US20250115598, Compound 135]
[1]
  Kd: > 2.5 µM
[2]
  Kd: > 2.5 µM

## C[C@H](Oc1cc(-c2nn(C)c3c(-c4cnn(CCC(F)(F)F)c4)cnc(N)c23)ccc1NS(=O)(=O)C(F)F)c1ccc(F)cc1 [US20250115598, Compound 113]
[3]
  Kd: < 0.05 µM

## COc1ccc([C@H](C)Oc2cc(-c3nn(C)c4c(-c5cnn(C6CCOCC6)c5)cnc(N)c34)ccc2NS(=O)(=O)C(F)F)cc1 [US20250115598, Compound 129]
[1]
  Kd: > 2.5 µM
[2]
  Kd: > 2.5 µM

## C[C@H](Oc1cc(-c2nn(C)c3c(C4=CCCN(C)C4)cnc(N)c23)ccc1NS(=O)(=O)C(F)F)c1ccc(F)cc1 [US20250115598, Compound 55]
[1]
  Kd: > 2.5 µM
[2]
  Kd: > 2.5 µM
